Assay results from PMC5847526, “Inhibition of neuronal FLT3 receptor tyrosine kinase alleviates peripheral neuropathic pain in mice” (Nature Communications, 2018).

Experiments:
Assay in all cases: biochemical
Set-up in all cases: ExpresS Diversity kinase profile (Eurofins Cerep P10), per cent inhibition
Conditions in all cases: read-out: Inhibition of reference binding (Table 4)
p38α kinase = target: T1, p38α kinase (Homo sapiens, UniProt Q16539)
T1 construct: gene MAPK14

EGFR kinase = EGFR kinase (Homo sapiens, UniProt P00533)
GSK3β = target: T2, GSK3β (Homo sapiens, UniProt P49841)
T2 construct: gene GSK3B

c-Met kinase = c-Met kinase (Homo sapiens, UniProt P08581)
Sequence of c-Met kinase (P08581 whole entry): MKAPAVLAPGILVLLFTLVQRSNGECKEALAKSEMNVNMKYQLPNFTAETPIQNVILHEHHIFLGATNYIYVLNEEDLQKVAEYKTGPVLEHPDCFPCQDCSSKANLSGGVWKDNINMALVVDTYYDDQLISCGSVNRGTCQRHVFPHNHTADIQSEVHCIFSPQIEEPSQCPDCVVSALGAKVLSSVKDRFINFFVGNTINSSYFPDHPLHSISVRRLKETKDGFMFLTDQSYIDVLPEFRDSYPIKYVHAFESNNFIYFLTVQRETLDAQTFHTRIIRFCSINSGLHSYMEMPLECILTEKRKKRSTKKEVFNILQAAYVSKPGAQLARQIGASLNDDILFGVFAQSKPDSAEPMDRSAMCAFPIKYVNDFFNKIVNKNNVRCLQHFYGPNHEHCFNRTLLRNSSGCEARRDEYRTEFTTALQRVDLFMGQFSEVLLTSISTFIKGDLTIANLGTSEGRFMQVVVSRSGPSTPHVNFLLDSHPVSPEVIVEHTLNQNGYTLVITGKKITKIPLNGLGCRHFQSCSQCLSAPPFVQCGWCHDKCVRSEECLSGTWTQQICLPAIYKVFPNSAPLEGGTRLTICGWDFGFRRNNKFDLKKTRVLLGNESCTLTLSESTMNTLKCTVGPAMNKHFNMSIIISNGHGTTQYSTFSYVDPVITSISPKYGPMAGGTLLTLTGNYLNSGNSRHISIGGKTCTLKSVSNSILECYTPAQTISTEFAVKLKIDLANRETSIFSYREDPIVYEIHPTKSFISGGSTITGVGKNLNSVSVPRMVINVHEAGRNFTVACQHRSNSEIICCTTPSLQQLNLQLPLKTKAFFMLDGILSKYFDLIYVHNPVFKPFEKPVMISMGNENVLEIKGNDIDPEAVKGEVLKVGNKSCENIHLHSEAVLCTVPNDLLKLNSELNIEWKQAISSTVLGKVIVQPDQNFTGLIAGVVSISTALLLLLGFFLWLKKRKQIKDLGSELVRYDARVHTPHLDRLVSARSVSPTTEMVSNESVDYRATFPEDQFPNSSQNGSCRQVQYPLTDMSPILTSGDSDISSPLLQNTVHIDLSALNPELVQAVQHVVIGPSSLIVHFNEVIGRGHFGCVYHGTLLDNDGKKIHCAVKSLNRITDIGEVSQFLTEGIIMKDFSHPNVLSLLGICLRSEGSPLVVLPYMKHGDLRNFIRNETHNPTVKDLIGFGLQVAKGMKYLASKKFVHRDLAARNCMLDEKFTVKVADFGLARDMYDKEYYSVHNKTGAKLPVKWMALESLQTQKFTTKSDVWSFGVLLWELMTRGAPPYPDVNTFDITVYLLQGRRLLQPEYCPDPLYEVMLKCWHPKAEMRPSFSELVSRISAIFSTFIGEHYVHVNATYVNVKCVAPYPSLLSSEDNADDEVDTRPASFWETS

FGFR1 kinase = FGFR1 kinase (Homo sapiens, UniProt P11362)
Sequence of FGFR1 kinase (P11362 whole entry): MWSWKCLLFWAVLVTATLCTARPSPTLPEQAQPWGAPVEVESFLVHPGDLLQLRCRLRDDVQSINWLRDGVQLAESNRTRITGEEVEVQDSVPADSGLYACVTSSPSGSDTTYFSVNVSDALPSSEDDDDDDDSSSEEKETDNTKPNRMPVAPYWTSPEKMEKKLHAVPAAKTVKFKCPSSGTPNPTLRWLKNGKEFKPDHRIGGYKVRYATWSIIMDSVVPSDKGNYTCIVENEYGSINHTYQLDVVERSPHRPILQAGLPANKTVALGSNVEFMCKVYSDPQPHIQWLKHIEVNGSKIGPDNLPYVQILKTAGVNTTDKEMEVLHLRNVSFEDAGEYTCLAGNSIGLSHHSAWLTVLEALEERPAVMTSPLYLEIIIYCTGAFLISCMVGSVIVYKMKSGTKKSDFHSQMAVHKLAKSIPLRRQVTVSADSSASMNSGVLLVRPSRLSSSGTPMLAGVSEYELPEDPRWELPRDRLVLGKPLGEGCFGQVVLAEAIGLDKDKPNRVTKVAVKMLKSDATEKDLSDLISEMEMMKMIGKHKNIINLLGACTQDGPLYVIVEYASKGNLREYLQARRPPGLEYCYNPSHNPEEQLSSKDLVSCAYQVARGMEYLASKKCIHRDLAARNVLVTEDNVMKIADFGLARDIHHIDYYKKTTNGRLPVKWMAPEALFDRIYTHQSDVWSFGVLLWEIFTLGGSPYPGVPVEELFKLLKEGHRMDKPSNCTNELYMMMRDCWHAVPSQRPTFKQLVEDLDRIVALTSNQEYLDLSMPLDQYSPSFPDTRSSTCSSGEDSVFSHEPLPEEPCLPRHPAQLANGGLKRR

Pim2 kinase = Pim2 kinase (Homo sapiens, UniProt Q9P1W9)
Sequence of Pim2 kinase (Q9P1W9 whole entry): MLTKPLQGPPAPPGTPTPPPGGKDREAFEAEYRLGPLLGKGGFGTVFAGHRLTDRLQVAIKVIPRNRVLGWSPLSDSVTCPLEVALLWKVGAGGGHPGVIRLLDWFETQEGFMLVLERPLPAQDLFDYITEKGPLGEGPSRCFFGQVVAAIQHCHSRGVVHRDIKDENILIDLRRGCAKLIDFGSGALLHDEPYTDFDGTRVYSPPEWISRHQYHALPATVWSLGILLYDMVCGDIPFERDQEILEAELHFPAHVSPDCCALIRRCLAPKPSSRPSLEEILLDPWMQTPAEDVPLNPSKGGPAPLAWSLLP

FGFR2 kinase = FGFR2 kinase (Homo sapiens, UniProt P21802)
Sequence of FGFR2 kinase (P21802 whole entry): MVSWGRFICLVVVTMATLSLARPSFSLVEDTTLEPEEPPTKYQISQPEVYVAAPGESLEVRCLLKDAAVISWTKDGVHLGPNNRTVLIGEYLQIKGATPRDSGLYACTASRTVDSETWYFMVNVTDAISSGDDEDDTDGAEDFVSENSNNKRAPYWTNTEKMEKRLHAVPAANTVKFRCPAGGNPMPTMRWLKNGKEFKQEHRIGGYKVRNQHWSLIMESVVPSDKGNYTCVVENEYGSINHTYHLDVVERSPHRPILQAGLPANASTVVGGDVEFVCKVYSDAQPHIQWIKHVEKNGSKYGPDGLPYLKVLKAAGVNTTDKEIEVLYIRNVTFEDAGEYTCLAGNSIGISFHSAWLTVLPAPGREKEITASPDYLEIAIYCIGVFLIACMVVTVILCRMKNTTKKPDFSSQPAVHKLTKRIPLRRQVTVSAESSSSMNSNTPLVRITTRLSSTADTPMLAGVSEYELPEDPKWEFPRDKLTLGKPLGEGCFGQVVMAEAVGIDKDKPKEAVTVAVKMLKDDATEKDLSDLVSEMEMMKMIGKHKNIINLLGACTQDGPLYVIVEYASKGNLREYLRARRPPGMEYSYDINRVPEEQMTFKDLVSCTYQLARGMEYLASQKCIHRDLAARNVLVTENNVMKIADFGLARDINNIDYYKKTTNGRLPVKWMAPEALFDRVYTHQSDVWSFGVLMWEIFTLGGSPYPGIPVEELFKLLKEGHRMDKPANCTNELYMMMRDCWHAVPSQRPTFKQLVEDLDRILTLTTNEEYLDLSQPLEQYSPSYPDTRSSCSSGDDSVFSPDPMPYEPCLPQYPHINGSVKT

ROCK1 = ROCK1 (Homo sapiens, UniProt Q13464)
SGK1 = SGK1 (Homo sapiens, UniProt O00141)
MARK1 = MARK1 (Homo sapiens, UniProt Q9P0L2)
CDK2 = CDK2 (Homo sapiens, UniProt P24941)
KDR = KDR (Homo sapiens, UniProt P35968)
Sequence of KDR (P35968 whole entry): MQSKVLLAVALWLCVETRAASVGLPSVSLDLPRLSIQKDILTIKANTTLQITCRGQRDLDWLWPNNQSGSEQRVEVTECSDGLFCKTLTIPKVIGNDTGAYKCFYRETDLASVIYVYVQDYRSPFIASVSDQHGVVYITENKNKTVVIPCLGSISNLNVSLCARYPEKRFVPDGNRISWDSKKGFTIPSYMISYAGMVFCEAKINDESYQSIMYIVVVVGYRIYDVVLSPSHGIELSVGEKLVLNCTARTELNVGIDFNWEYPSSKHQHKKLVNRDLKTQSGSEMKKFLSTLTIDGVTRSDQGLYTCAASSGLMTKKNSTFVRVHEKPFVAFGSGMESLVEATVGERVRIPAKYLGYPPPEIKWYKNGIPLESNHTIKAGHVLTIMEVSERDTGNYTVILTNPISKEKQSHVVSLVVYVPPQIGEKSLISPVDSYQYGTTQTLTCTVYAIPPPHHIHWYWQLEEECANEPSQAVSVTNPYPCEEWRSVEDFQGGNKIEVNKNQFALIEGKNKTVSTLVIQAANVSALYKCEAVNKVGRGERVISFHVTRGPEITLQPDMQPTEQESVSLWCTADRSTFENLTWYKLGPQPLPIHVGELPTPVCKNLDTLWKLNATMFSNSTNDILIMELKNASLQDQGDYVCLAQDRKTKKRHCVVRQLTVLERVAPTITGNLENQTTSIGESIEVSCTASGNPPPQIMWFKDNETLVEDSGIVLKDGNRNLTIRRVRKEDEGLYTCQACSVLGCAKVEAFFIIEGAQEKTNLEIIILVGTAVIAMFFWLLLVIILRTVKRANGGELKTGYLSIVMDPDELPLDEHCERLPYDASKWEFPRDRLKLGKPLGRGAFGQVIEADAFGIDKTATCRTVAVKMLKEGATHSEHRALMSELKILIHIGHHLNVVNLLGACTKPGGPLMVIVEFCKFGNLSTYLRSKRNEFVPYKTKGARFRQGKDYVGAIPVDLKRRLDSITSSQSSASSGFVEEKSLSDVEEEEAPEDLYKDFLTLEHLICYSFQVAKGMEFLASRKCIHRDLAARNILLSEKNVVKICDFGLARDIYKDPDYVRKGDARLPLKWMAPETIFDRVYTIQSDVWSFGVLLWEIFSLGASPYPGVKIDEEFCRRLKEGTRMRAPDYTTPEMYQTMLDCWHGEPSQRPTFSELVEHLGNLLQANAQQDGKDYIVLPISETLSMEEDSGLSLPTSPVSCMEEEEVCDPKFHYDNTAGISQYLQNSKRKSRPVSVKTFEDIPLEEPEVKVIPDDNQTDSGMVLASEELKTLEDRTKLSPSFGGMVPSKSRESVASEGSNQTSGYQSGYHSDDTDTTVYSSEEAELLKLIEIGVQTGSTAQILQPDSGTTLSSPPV

PDGFRα = target: T3, PDGFRα (Homo sapiens, UniProt P16234)
T3 construct: gene PDGFRA

TAOK2 = TAOK2 (Homo sapiens, UniProt Q9UL54)

T1 sequence (Q16539 whole entry): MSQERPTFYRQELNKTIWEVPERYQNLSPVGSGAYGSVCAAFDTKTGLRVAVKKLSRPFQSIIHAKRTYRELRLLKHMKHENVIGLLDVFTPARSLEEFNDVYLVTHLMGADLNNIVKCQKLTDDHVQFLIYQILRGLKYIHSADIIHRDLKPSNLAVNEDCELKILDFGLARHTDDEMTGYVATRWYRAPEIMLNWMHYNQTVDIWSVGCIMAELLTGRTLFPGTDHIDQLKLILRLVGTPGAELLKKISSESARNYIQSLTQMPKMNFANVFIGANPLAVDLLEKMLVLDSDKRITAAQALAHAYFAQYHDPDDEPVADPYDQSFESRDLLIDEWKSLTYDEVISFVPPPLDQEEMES

Structure (SMILES): O=C(Nc1cc(Cl)ccc1O)c1cccc(S(=O)(=O)N2CCCCC2)c1 [compound 66, BDT001]
- inhibition at 10 µM (p38α kinase): 23%
- inhibition at 10 µM (EGFR kinase): 4%
- inhibition at 10 µM (GSK3β): 0%
- inhibition at 10 µM (c-Met kinase): 0%
- inhibition at 10 µM (FGFR1 kinase): -7%
- inhibition at 10 µM (Pim2 kinase): 19%
- inhibition at 10 µM (FGFR2 kinase): -2%
- inhibition at 10 µM (ROCK1): 2%
- inhibition at 10 µM (SGK1): 16%
- inhibition at 10 µM (MARK1): 13%
- inhibition at 10 µM (CDK2): 33%
- inhibition at 10 µM (KDR): -6%
- inhibition at 10 µM (PDGFRα): 40%
- inhibition at 10 µM (TAOK2): 33%
